# Reference: the OPERA property sets (Mansouri et al. 2018)
row,Structure (SMILES),logP
1,Cc1ccccc1-c1nc2cc([N+](=O)[O-])ccc2[nH]1,3.42
2,COc1ccccc1-c1nc2ccccc2[nH]1,3.02
3,COc1ccc(Cc2nc3cc([N+](=O)[O-])ccc3[nH]2)cc1,3.48
4,Nc1ccc(Cc2nc3cc(Cl)ccc3[nH]2)cc1,3.2
5,Cc1ccc(-c2nc3ncccc3[nH]2)cc1,3.02
6,CC(C)(C)c1ccc(-c2nc3ncccc3[nH]2)cc1,4.82
7,Cc1ccc(-c2nc3ccccc3[nH]2)cc1,3.67
8,COc1ccc(-c2nc3cc(C)ccc3[nH]2)c(OC)c1,3.78
9,Cc1ccc(-c2nc3cc([N+](=O)[O-])ccc3[nH]2)c(C)c1,4.1
10,CCc1ccc(-c2nc3ncccc3[nH]2)cc1,3.42
11,Clc1ccc2[nH]c(Cc3ccc(Br)cc3)nc2c1,5.38
12,Clc1ccc(Cc2nc3cc(Cl)ccc3[nH]2)cc1,5.18
13,Clc1ccc(-c2nc3ncccc3[nH]2)cc1,2.95
14,Cc1ccc(Cc2nc3cc(Cl)ccc3[nH]2)cc1,5.21
15,Fc1ccc(-c2nc3ncccc3[nH]2)cc1,2.52
